Test results reported in patent publication US10336684B2, “Phenyl-(aza)cycloalkyl carboxylic acid GPR120 modulators” (BRISTOL-MYERS SQUIBB COMPANY, priority 2014, dated 2019).

Biological target: human GPR120 (Homo sapiens (Human), UniProt Q5NUL3)
Test: GPR120 pERK AlphaScreen SureFire assay (human GPR120 pERK assay)
Format: cell-based
Details: CHOA12 or CHO-K1 cells stably transfected with short form of human GPR120, 100% = 50 μM linolenic acid
Excerpt: GPR120 activity was monitored by measuring phosphorylation of ERK (pERK), since G protein receptors are known to activate the ERK signaling cascade either directly and/or through recruitment of arrestin that serves as a scaffold for downstream signaling events.
GPR120 pERK AlphaScreen SureFire Assay
The human and mouse GPR120-mediated intracellular phosphorylated ERK assays were established using CHOA12 cells stably transfected with the short form of human or mouse GPR120 receptor. Cells were cultured in growth medium consisting of F-12 media (Invitrogen Cat. #11765) with 5% Charcoal/Dextran FBS (Invitrogen Cat. #12676-029), 500 μg/mL GENETICIN® (Life Technologies Cat. #10131-027) and 250 μg/mL Zeocin (Invitrogen Cat. #R250-01). Cells were cryo preserved at a concentration of 2×10^7 cells/mL, in 90% Charcoal/Dextran FBS and 10% DMSO, and frozen in liquid nitrogen at a low passage number.
For the pERK assay, 2×10^7 cells/mL cryopreserved human and mouse cells were thawed rapidly in a 37° C. water bath and added to a T-225 flask containing 50 mL growth medium. The flasks were placed in a tissue culture incubator overnight (37° C., 5% CO2). The next day, cells were harvested with trypsin (Gibco Cat. #25300-054), resuspended in serum-containing growth medium and counted using a Cellometer and volume adjusted to a concentration of 0.6×10^6 cells/mL. Cells were plated into 384-well clear bottom tissue culture plates (BD Cat. #353962) at 50 μL/well, for a density of 30,000 cells/well using a MULTIDROP® and incubated for 16-18 hours (overnight) at 37° C. with 5% CO2. The next day, cells were serum starved in 30 μL of F-12 media without any serum or antibiotics for 2 hours at 37° C.
Test compounds were 3-fold, 11-point serially diluted in DMSO in a REMP assay plate (Matrix Cat. #4307) by Tecan and 5 μL was transferred into an ECHO source plate (Labcyte Cat. #LC-0200). Cells were then stimulated with 50 nL of compound dilutions using ECHO liquid handler for 7 minutes at 37° C. Compounds ranged from final assay concentrations of 33.33 μM to 0.56 nM.
The media was then dumped and cells lysed with 20 μL of 1× Lysis buffer from the AlphaScreen SureFire Phospho-ERK 1/2 Kit (Perkin Elmer Cat. #6760617M). The lysis buffer was diluted 5-fold with water before use. The plate was agitated on a shaker for 10 minutes after which 2 μL was transferred into a 384-well white proxiplate (Perkin Elmer Cat. #6008289). The SureFire assay reagent mix was prepared by mixing 60 parts Reaction Buffer, 10 parts Activation Buffer, 1 part Donor Beads, 1 part Acceptor Beads (Perkin Elmer Cat. #TGRES10K). 3.5 μL/well of this reagent mix was manually added to the proxiplate with a multichannel pipettor. Plates were spun down at 1000 rpm for 2 minutes, followed by light-protected incubation at room temperature for 2 hours. The plates were read on the Alpha-technology compatible Envision multilabel plate reader using AlphaScreen protocol according to manufacturer's specifications. The agonist effect of compounds was expressed as 100×(average sample-average blank)/(average total−average blank) where sample is the luminescence activity in the presence of test compound, blank is equal to the luminescence activity in the presence of DMSO control and the total is signal induced by 50 μM linolenic acid as reference compound. Activation data for the test compound over a range of concentrations was plotted as percentage activation of the test compound (100%=maximum response). After correcting for background, EC50 values were determined. The EC50 is defined as the concentration of test compound which produces 50% of the maximal response and was quantified using the 4 parameter logistic equation to fit the data.
The human and mouse GPR120-mediated intracellular phosphorylated ERK assays were also established using CHO-K1 cells stably transfected with the short form of human or mouse GPR120 receptor. […]

Sequence of human GPR120 (Q5NUL3 whole entry): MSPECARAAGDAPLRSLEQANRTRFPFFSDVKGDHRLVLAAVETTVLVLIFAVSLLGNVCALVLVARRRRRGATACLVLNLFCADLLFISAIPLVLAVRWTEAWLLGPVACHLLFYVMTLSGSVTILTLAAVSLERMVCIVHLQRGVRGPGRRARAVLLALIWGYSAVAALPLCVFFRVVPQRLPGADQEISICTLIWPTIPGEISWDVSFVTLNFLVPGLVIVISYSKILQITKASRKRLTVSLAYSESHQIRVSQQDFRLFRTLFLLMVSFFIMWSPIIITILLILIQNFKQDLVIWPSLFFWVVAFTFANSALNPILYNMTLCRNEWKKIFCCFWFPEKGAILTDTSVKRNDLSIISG

Row | Compound | EC50 [nM]
1 | N#Cc1ccc(O[C@H]2CCC[C@@H](c3ccc(CCOCC(=O)O)cc3)C2)cc1 (racemic) [Example 39] | 3240
2 | O=C(O)COCCc1ccc(C2CCCCC(Oc3ccccc3)C2)cc1 (single isomer, unassigned) [Example 17, 2-(4-(3-Phenoxycycloheptyl)phenethoxy)acetic acid] | 270
3 | Cc1ccc(O[C@H]2CCC[C@@H](c3ccc(CCOCC(=O)O)cc3)C2)cn1 (racemic) [Example 35] | 1610
4 | O=C(O)COCCc1ccc(C2CCCCC(Oc3ccccc3)C2)cc1 (single isomer, unassigned) [Example 16, 2-(4-(3-Phenoxycycloheptyl)phenethoxy)acetic acid] | 750
5 | Cc1ccc(O[C@H]2CCC[C@@H](c3ccc(CCOCC(=O)O)cc3)C2)cc1 (racemic) [Example 36] | 310
6 | O=C(O)COCCc1ccc(C2CCCCC(Oc3ccccc3)C2)cc1 (stereo not drawn) [Example 14, 2-(4-(3-Phenoxycycloheptyl)phenethoxy)acetic acid] | 630
7 | O=C(O)COCCc1ccc([C@@H]2CCC[C@H](Oc3ccc(Cl)cc3)C2)cc1 (racemic) [Example 38] | 720
8 | O=C(O)CCCCc1ccc([C@@H]2CCC[C@@H](Oc3ccccc3)C2)cc1 (single isomer, unassigned) [Example 2, 5-(4-((+/−)-3-Phenoxycyclohexyl)phenyl)pentanoic acid] | 2360
9 | O=C(O)[C@@H]1C[C@H]1CCc1ccc(N2CCCC(Oc3ccccc3)CC2)cc1 (stereo partly drawn) [Example 62] | 10300
10 | O=C(O)COCCc1ccc(C2CCC(Oc3ccccc3)C2)cc1 (stereo not drawn) [Example 19, 2-(4-(3-Phenoxycyclopentyl)phenethoxy)acetic acid] | 2130
11 | O=C(O)COCCCc1ccc(N2CCCC(Oc3ccccc3)C2)cc1 (stereo not drawn) [Example 27, 2-(3-(4-(3-Phenoxypiperidin-1-yl)phenyl)propoxy)acetic acid] | 4130
12 | CC(C)O[C@H]1CCC[C@@H](c2ccc(OC[C@H]3C[C@@H]3C(=O)O)cc2)C1 (racemic) [Example 43] | > 16000
13 | O=C(O)[C@H]1C[C@@H]1CCc1ccc([C@@H]2CCCC(Oc3ccccc3)C2)cc1 (single isomer, unassigned) [Example 9] | 650
14 | O=C(O)CCCCc1ccc(C2CCCCC(Oc3ccc(Cl)cc3)C2)cc1 (stereo not drawn) [Example 44] | 530
15 | O=C(O)COCCc1ccc(N2CC(Oc3ccccc3)C2)cc1 [Example 63] | 4320
16 | O=C(O)[C@H]1C[C@@H]1COc1ccc(C2CCCC(Oc3ccccc3)C2)cc1 (mixture of isomers) [Example 11, (1S,2S)-2-((4-((+/−)-3-Phenoxycyclohexyl)phenoxy)methyl)cyclopropanecarboxylic acid] | 600
17 | O=C(O)COCCc1ccc([C@@H]2CCC[C@H](Oc3ccccc3)C2)cc1 (single isomer, unassigned) [Example 6] | 180
18 | O=C(O)CCCCc1ccc(C2CCCCC(Oc3ccccc3)C2)cc1 (single isomer, unassigned) [Example 12, 5-(4-(3-Phenoxycycloheptyl)phenyl)pentanoic acid] | 310
19 | O=C(O)[C@@H]1C[C@H]1CCc1ccc(N2CCC[C@H](Oc3ccc(F)cc3)C2)cc1 [Example 52] | 1540
20 | O=C(O)CCCCc1ccc(N2CC[C@@H](Oc3ccccc3)C2)cc1 [Example 61] | 3380
21 | O=C(O)[C@H]1C[C@@H]1CCc1ccc(N2CCC[C@H](Oc3ccccc3)C2)cc1 [Example 49] | 1310
22 | O=C(O)COCCc1ccc([C@@H]2CCC[C@H](Oc3ccc(F)cc3)C2)cc1 (racemic) [Example 37] | 4240
23 | O=C(O)[C@H]1C[C@@H]1COc1ccc([C@@H]2CCC[C@@H](Oc3ccccc3)C2)cc1 (racemic) [Example 42] | > 32000

Row | Compound | EC50 [nM]
24 | O=C(O)[C@H]1C[C@@H]1CCc1ccc([C@H]2CCCC(Oc3ccccc3)C2)cc1 (single isomer, unassigned) [Example 8] | 1450
25 | O=C(O)[C@@H]1C[C@H]1CCc1ccc(N2CCC[C@@H](Oc3ccccc3)C2)cc1 [Example 50] | 410
26 | O=C(O)[C@H]1C[C@@H]1CCc1ccc(N2CCC[C@@H](Oc3ccccc3)C2)cc1 [Example 48] | 3220
27 | O=C(O)[C@@H]1C[C@@H]1COc1ccc(N2CCCC(Oc3ccccc3)C2)cc1 (single isomer, unassigned) [Example 28, (+/−)-2-((4-(3-Phenoxypiperidin-1-yl)phenoxy)methyl)cyclopropanecarboxylic acid] | 4980
28 | O=C(O)[C@H]1C[C@@H]1CCc1ccc(N2CCC[C@H](c3ccccc3)C2)cc1 [Example 54] | 1340
29 | CC(C)OC1CCC(c2ccc(CCCCC(=O)O)cc2)C1 (stereo not drawn) [Example 47] | 3770
30 | O=C(O)CCCCc1ccc(N2CCC(Oc3ccccc3)CC2)cc1 [Example 58] | 4090
31 | O=C(O)[C@@H]1C[C@H]1CCc1ccc([C@@H]2CCC[C@H](Oc3ccccc3)C2)cc1 (single isomer, unassigned) [Example 10] | 530
32 | Cc1ccc(O[C@H]2CCC[C@@H](c3ccc(CCOCC(=O)O)cc3)C2)cc1F (racemic) [Example 34] | 300
33 | O=C(O)[C@H]1C[C@@H]1CCc1ccc([C@@H]2CCC[C@@H](Oc3ccccc3)C2)cc1 (racemic) [Example 40] | 3750
34 | O=C(O)COCCc1ccc([C@H]2CCC[C@@H](Oc3ccccc3)C2)cc1 (single isomer, unassigned) [Example 5] | 1030
35 | O=C(O)[C@H]1C[C@@H]1CCc1ccc(N2CCC[C@@H](c3ccccc3)C2)cc1 [Example 53] | 3610
36 | O=C(O)COCCc1ccc(C2CCCCC(Oc3ccccc3)C2)cc1 (single isomer, unassigned) [Example 15, 2-(4-(3-Phenoxycycloheptyl)phenethoxy)acetic acid] | 1990
37 | O=C(O)CCCCc1ccc(N2CCC[C@H](Oc3ccccc3)C2)cc1F [Example 26, (S)-5-(2-Fluoro-4-(3-phenoxypiperidin-1-yl)phenyl)pentanoic acid] | 570
38 | O=C(O)CCCCc1ccc([C@@H]2CCC[C@H](Oc3ccccc3)C2)cc1 (single isomer, unassigned) [Example 1, 5-(4-((+/−)-3-Phenoxycyclohexyl)phenyl)pentanoic acid] | 480
39 | O=C(O)CCCCc1ccc(N2CCC[C@H](Oc3ccc(F)cc3)C2)cc1 [Example 24, (S)-5-(4-(3-(4-Fluorophenoxy)piperidin-1-yl)phenyl)pentanoic acid] | 930
40 | O=C(O)CCCCc1ccc(N2CC[C@H](Oc3ccccc3)C2)cc1 [Example 60] | 220
41 | O=C(O)COCCc1ccc([C@@H]2CCC[C@H](Oc3ccccc3)C2)cc1 (single isomer, unassigned) [Example 4, 2-(4-((+/−)-3-Phenoxycyclohexyl)phenethoxy)acetic acid] | 320
42 | O=C(O)CCCCc1ccc(C2CCC(Oc3ccccc3)C2)cc1 (stereo not drawn) [Example 18, 5-(4-(3-Phenoxycyclopentyl)phenyl)pentanoic acid] | 1380
43 | O=C(O)[C@@H]1C[C@H]1CCc1ccc(N2CCC[C@@H](c3ccccc3)C2)cc1 [Example 55] | 6260
44 | O=C(O)CCCCc1c(F)cc(N2CCC[C@H](Oc3ccccc3)C2)cc1F [Example 25, (S)-5-(2,6-Difluoro-4-(3-phenoxypiperidin-1-yl)phenyl)pentanoic acid] | 540
45 | O=C(O)[C@@H]1C[C@H]1CCc1ccc(N2CCC[C@H](c3ccccc3)C2)cc1 [Example 56] | 4840
